Source: PubChem BioAssay AID1996
Values after ≈ are worked out from the molar mass of the structure shown.

Conditions: buffer; pH 7.4; 200.0 µM

Compound | solubility kinetic [µg/mL]
O=C(c1c(F)cccc1F)N1CCC(O)(c2ccc(F)cc2)CC1 | 49 (≈ 146 µM)
CC(C)(C)NC(=O)NC(=O)COC(=O)CNC(=O)C1CCCCC1 | 40.9 (≈ 120 µM)
CCC(CC)NC(=O)Cc1ccc(F)cc1 | > 33.5
O=C(Nc1cccc(Cl)c1)OC1CCCCc2cccnc21 (configuration not stated) | 9.3 (≈ 29.4 µM)
CCCN1CCC(NC(=O)Nc2cc(Cl)ccc2OC)CC1 | 47.6 (≈ 146 µM)
CCCCCOC(=O)NC1CCS(=O)(=O)C1 (configuration not stated) | > 37.4
CCOC(=O)Cc1csc(NC(=O)c2ccc(Cl)s2)n1 | 13.1 (≈ 39.6 µM)
Brc1ccc(CNc2ccc3ncccc3c2)cc1 | < 0.3
Cl.Nc1ccc(CCN2CCCC2)cc1 | 34.7
O=S(=O)(Nc1ccc2c(c1)OCCO2)c1ccc(F)c(F)c1 | > 49.1
CCC(CO)Nc1ncnc2onc(-c3ccc(F)cc3)c12 (configuration not stated) | > 45.3
CC1CN(S(=O)(=O)c2cc(C(=O)N(C)Cc3cccs3)ccc2Cl)CC(C)O1 (configuration not stated) | 64.6 (≈ 146 µM)
Nc1cc(Cl)ccc1Nc1ccncc1 | > 33
CC1CCc2cc(F)ccc2N1C(=O)CCl (configuration not stated) | > 36.3
CNc1ccc(Cl)cc1C(N)=O | > 27.7
CCN1CCN(CCC(=O)Nc2ccc(C)cc2)CC1.Cl | > 46.8
Cc1cc(C)n2nc(SCC(=O)N3CCN(c4ccccc4)CC3)nc2n1 | > 57.4
N#Cc1c(Nc2ccccc2Cl)s[nH]c1=O | > 37.8
O=C(NCCc1ccc(Cl)cc1)c1ccc(Br)s1 | 1.2 (≈ 3.48 µM)
OCC(CO)(CO)NC(=S)Nc1cc(Cl)cc(Cl)c1 | 46.7 (≈ 144 µM)
N#C/C(=C\c1ccccc1)c1ccccn1 | 8.6 (≈ 41.7 µM)
O=C(NC1CCC(O)CC1)c1cccc2cccnc12 (configuration not stated) | > 40.5
O=S(=O)(c1cccc2cccnc12)N1CCCCC1 | > 41.5
N#CCNC(=O)C1CC(=O)N(CCc2ccc(F)cc2)C1 (configuration not stated) | 39.7 (≈ 137 µM)

Compound | solubility kinetic [µg/mL]
Cc1ccc(S(=O)(=O)N2CCN(Cc3ccccc3)CC2)cc1 | 5 (≈ 15.1 µM)
CCc1ccc(-c2nc(CS(=O)CC(=O)O)c(C)o2)cc1 (configuration not stated) | 46 (≈ 150 µM)
O=C(COc1ccc(S(=O)(=O)NC2CCCCC2)cc1)NC1CC1 | > 52.9
O=C(Nc1ccc(N2CCCC2)cc1)c1cccc(Cl)c1 | < 0.3
Cc1ccc(F)cc1S(=O)(=O)NCc1ccc(N2CCN(C)CC2)cc1 | 16 (≈ 42.4 µM)
Cc1nnc(SC(C)C(=O)NC2CCCCC2)s1 (configuration not stated) | > 42.8
CN(C)CCOC(=O)C(c1ccccc1)C1(O)CCCC1.Cl (configuration not stated) | > 49.2
CC1(C)C(=O)OC(/C=C/c2cccc([N+](=O)[O-])c2)C(C)(C)C1=O (configuration not stated) | 2.7 (≈ 8.51 µM)
Cc1nc(SCC(N)=O)c([N+](=O)[O-])[nH]1 | > 32.4
O=C(O)C1CCCCC1C(=O)Nc1ccc2c(c1)OCO2 (configuration not stated) | > 43.7
O=C(CC1CCOCC1)Nc1ccc(Cl)c(Cl)c1 | > 43.2
O=C(NC1CC2CCCC(C1)N2Cc1ccccc1)C1CCCCC1 (configuration not stated) | > 51.1
CC1(c2cccc(Br)c2)NC(=O)NC1=O (configuration not stated) | > 40.4
CCCCNC(=O)C1CCN(S(=O)(=O)N2CCOCC2)CC1 | > 50
Cc1ccc2oc(=O)n(CC(=O)N3CCOCC3)c2c1 | > 41.4
c1ccc(-c2cc(-c3ccccc3)on2)cc1 | < 0.5
Nc1nc2cc(S(=O)(=O)N3CCOCC3)ccc2o1 | > 42.5
Cc1ccc(-c2noc(-c3c(C)noc3C)n2)cc1 | < 0.2
Cc1ccc(-c2cn(-c3ccccc3F)c(=S)[nH]2)cc1 | 1.1 (≈ 3.87 µM)
Cc1ccc(NC(=S)N2CCCC2)cc1C | > 35.2
CC(=O)N1C(C(=O)O)Cc2c([nH]c3ccccc23)C1(C)C (configuration not stated) | > 42.9
O=c1cc(-c2ccccc2)nc(/C=C/c2ccccc2)[nH]1 | 0.4 (≈ 1.46 µM)
CCOc1nc(Nc2ccccc2)nc(OCC)n1 | 38 (≈ 146 µM)

Further lines, results first:

solubility kinetic [µg/mL] | Compound
0.8 (≈ 2.47 µM) | Cc1nc(NCc2ccccc2)sc1C(=O)Nc1ccccc1
> 39.3 | CN(C(=O)c1ccc2ccccc2c1)c1ccccn1
1.1 (≈ 3.93 µM) | COc1ccc(CNc2nc(Cl)c(C#N)s2)cc1
49.7 (≈ 144 µM) | Cc1cc(=O)[nH]c2c(C)cc(S(=O)(=O)Nc3ccc(O)cc3)cc12
5.7 (≈ 16.4 µM) | O=C(OCCN=C1NS(=O)(=O)c2ccccc21)c1ccccc1F
< 0.3 | CC(=O)c1ccc(NC(=S)NC(=O)/C=C/c2ccccc2)cc1
19.8 (≈ 64.4 µM) | COc1ccc(-n2c(C)nc(N)c2C(=O)c2ccccc2)cc1
28.7 (≈ 81.5 µM) | O=C(COC(=O)c1ccccc1Br)Nc1ccc(F)cc1
> 47 | CC(=O)Nc1ccc(NC(=O)COC(=O)c2ccccn2)cc1
30 (≈ 92.5 µM) | NS(=O)(=O)c1ccc(NC(=O)COC(=O)c2ccco2)cc1
> 50.9 | COc1ccc(OC)c(CNC(=O)c2coc(=O)c3ccccc23)c1
1.4 (≈ 3.92 µM) | COc1ccc(N2C(=O)CS/C2=N\C(=S)Nc2ccccc2)cc1
15.4 (≈ 45.8 µM) | COC(=O)c1sccc1NC(=O)Nc1ccc(OC)cc1OC
7.6 (≈ 30.7 µM) | CCOc1ccc(Nc2cc(=O)[nH]c(=O)[nH]2)cc1
> 52.9 | CC(=O)C1=C(O)C(=O)N(Cc2ccccc2)C1c1cccc([N+](=O)[O-])c1 (configuration not stated)
31.5 (≈ 105 µM) | COc1ccccc1C(=O)NC1CCSc2ccccc21 (configuration not stated)
10.5 (≈ 33.3 µM) | Cc1cc(=O)oc2cc(NS(=O)(=O)c3ccccc3)ccc12
41.2 (≈ 148 µM) | COc1ccccc1OCC(=O)Nc1ncc(C)s1
35.9 (≈ 140 µM) | O=c1[nH]c2ccc(NCc3ccc(F)cc3)cc2[nH]1
> 47 | COc1ccc(F)cc1S(=O)(=O)NCCCn1ccnc1

solubility kinetic [µg/mL] | Compound
11.4 (≈ 35.7 µM) | Cc1cc(C(=O)OCC(=O)NC(C)c2ccc(F)cc2)c(C)o1 (configuration not stated)
> 32.6 | Cc1cc(=O)n(CC(=O)O)c2ccccc12
52.1 (≈ 125 µM) | CC(C)[C@H](NS(=O)(=O)c1ccccc1)C(=O)Nc1ccccc1N1CCOCC1
8.1 (≈ 25.8 µM) | CC1CCCC(C)N1C(=O)COC(=O)c1c[nH]c2ccccc12 (configuration not stated)
3.6 (≈ 11 µM) | CCOc1ccccc1NC(=O)CN1C(=O)COc2ccccc21
> 50.9 | COc1ccc(C2C(C(C)=O)=C(O)C(=O)N2c2ccc(O)cc2)cc1 (configuration not stated)
> 51.1 | CCC(C)NC(=O)C1c2ccccc2C(=O)N1Cc1ccc(F)cc1 (configuration not stated)
56.2 (≈ 147 µM) | CCOCc1c(C(=O)NCC(c2ccco2)N2CCCC2)oc2ccccc12 (configuration not stated)
4.2 (≈ 13.4 µM) | CC(C)CN1C(=O)c2ccc(NC(=O)c3ccco3)cc2C1=O
> 49.6 | CN(C)CCNC(=O)Cn1c(=O)c2cccn2c2ccc(F)cc21
34.9 (≈ 110 µM) | Cn1c(-c2ccc(F)cc2)cnc1NCc1ccc(F)cc1F
49.5 (≈ 144 µM) | CCCCn1c(N)c(N(CC)C(=O)c2ccccc2C)c(=O)[nH]c1=O
5 (≈ 15.7 µM) | CC1CC(C)CN(C(=O)c2cccc3c2-c2ccccc2C3=O)C1 (configuration not stated)
44.3 (≈ 135 µM) | COc1ccc(C(CC(=O)N2CCCC2)c2ccc(F)cc2)cc1 (configuration not stated)
4.3 (≈ 15.6 µM) | CCOC(=O)CCSc1cc(C)c2ccccc2n1
> 40.9 | CC(O)c1ccc(OCCN(C)c2ccccn2)cc1 (configuration not stated)
> 52.9 | Cc1ccc(/C(O)=C2\C(=O)C(=O)N(C)C2c2ccc([N+](=O)[O-])cc2)cc1 (configuration not stated)
> 53.6 | O=C(O)CCC(=O)NN1C(=O)c2ccccc2NC1c1ccc(F)cc1 (configuration not stated)
46.4 (≈ 140 µM) | NS(=O)(=O)c1ccc(CCNC(=O)CCc2ccccc2)cc1
2.2 (≈ 6.23 µM) | Cc1ccc(NC(=O)CN2C(=O)S/C(=C/c3ccncc3)C2=O)cc1
